In US20080167347A1, “Ctgf Expression Inhibitor” (SHIONGI & CO., LTD., priority 2005, published 2008) one finds IC50 data, which are given here for one molecule.

In this experiment the test system is human CTGF promoter region containing TGF-β responsive element. Kind of experiment: Luciferase assay of CTGF promoter activity in Ms0-2-3 cells stimulated with TGF-β. It is filed as cell-based. To be noted: Mesangial cell; Ms0-2-3 rat mesangial cells, TGF-β 2 ng/ml stimulation, luciferase activity after 24 hours; read-out: IC50 (inhibitory rate against CTGF promoter activity). On the procedure: Several kidneys of 6 to 8-week-old male Wistar rats were perfused with sterilized phosphate buffered saline (PBS) and excised. Glomeruli were isolated from the cortex by a sieving method (with 180, 125 or 63 μm mesh). Isolated glomeruli were cultured in RPMI1640 medium containing 20% bovine serum, 1% penicillin-streptomycin and 1% Hepes buffer at 37° C. under 5% carbon dioxide (CO2) atmosphere. After 3 weeks, the medium was changed to the new one. After 4 weeks, mesangial cells which proliferated and became confluent were diluted 2 to 5 times and subcultured. Subcultures were repeated over 20 times, and mesangial cells cultured in usual RPMI1640 medium containing 10% bovine serum, 1% penicillin-streptomycin and 1% Hepes buffer were cloned by a limiting dilution method to establish cell line Ms0-2. […]
Luciferase assay was performed with Ms0-2-3 cells which were cultured with serum-free medium for 48 hours. […] Substrate was added thereto and luciferase activity of each well was measured by luminometer. Enhancement of luciferase activity by TGF-β stimulation (without a compound) was determined as 100% and the inhibitory rate of activity by addition of the compound was calculated. The value obtained from the inhibitory curve was judged as the inhibitory rate against CTGF promoter activity and determined as IC50 value. […]

A word on the IC50: it is the point on the concentration scale where inhibition reaches its midpoint.

For the molecule `O=C(Nc1cccc(C(F)(F)F)c1)c1cc(-c2ccc(OC(F)(F)F)cc2)ccc1O` [Compound 43], the IC50 came to 0.102 µM.
